IC50, DC50 and Dmax data for 15 molecules are collected here from patent publication US20220348595A1, “COMPOUNDS AND METHODS FOR THE TARGETED DEGRADATION OF ESTROGEN RECEPTORS” (Endotarget Inc., priority 2021, published 2022).

Type in all cases: cell-based
Assay [1] deals with MCF-7 breast cancer cells. The assay can be described thus: MCF-7 proliferation / cell viability assay. The note with it: Homo sapiens, MCF7; MCF-7 proliferation with 0.1 nM 17-beta estradiol; read-out: IC50 (anti-proliferation). In a few lines:
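Survival ratio, with vehicle (DMSO) as 100%, was derived from Coulter-counted viable cell numbers. Cells were grown in 5% FBS DMEM and dosed for 5 days across six concentrations between 10^−10 M and 10^−5 M.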

A further assay addresses T1, ER (Homo sapiens, UniProt P03372).
T1 construct: endogenous in cells; host or cells: T47d-kb-Luc (T47D stably transfected with a luciferase reporter gene only)
T1 sequence (P03372 1-595): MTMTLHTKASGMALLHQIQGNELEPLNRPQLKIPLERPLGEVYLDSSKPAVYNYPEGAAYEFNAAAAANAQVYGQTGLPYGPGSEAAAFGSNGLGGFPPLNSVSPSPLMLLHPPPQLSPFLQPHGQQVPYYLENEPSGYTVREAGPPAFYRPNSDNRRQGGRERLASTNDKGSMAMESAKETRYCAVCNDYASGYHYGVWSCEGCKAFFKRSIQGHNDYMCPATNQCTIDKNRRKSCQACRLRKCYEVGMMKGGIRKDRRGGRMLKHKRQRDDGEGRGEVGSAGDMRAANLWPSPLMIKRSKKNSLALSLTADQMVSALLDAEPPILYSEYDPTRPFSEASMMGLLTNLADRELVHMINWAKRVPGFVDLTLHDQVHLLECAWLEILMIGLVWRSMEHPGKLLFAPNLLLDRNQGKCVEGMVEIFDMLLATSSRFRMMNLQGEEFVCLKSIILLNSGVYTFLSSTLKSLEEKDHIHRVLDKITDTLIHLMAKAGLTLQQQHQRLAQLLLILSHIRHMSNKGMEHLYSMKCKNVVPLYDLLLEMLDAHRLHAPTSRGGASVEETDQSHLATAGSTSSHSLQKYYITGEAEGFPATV
As to the kind of experiment: ER antagonism (T47D ERE luciferase), T47d-kb-Luc cells. The note with it: read-out: IC50 (ER antagonistm). The procedure, abridged:
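Five sample concentrations, each in quadruplicate and repeated in at least three experiments, were tested for blocking of estradiol activity. Values were expressed relative to the estradiol control. The cell system was the T47d-kb-Luc stable breast cancer line.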

Another assay deals with T2, ERα (Homo sapiens, UniProt P03372).
T2 construct: endogenous in cells; host or cells: MCF-7
T2 sequence (P03372 1-595): T1 sequence (P03372 1-595)
The assay can be described thus: ER degradation in MCF-7 cells (Western blot). The note with it: for DC50: ER degradation, 24 hours; for Dmax: MCF7, Maximal ER degradation, read-out: Dmax. In a few lines: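 ERα levels assessed by Western blot (50 μg lysate protein, infrared scanner) after 24-hour exposure of MCF-7 cells to varied compound concentrations. Values reported as DC50, the concentration halving ER expression, and Dmax, the maximal ER reduction achieved across tested concentrations.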
In general terms: In western blotting, separated proteins are transferred to a membrane and probed.

As usually defined, the DC50 is the concentration at which degradation of the target reaches its halfway point. Low readings indicate degradation at low concentration, high ones degradation only at high concentration. The Dmax is the greatest extent of degradation seen. In the case of `CC/C(=C(\c1ccc(OCCN2CCN(C(=O)N3CCC(CN4CCN(c5ccc6c(c5)CN(C5CCC(=O)NC5=O)C6=O)CC4)CC3)CC2)cc1)c1ccc(B(O)O)cc1)c1ccccc1` (stereo not drawn) [Compound 92, (E)-(4-(1-(4-(2-(4-(4-((4-(2-(2,6-dioxopiperidin-3-yl)-1-oxoisoindolin-5-yl)piperazin-1-yl)methyl)piperidine-1-carbonyl)piperazin-1-yl)ethoxy)phenyl)-2-phenylbut-1-en-1-yl)phenyl)boronic acid], the IC50 in assay [1] was < 10 nM. Moreover, at ER, the IC50 is < 10 nM. Also, on ERα, the DC50 is < 10 nM and the maximal degradation (Dmax) is > 90%.

For `CC/C(=C(/c1ccc(B(O)O)cc1)c1ccc(N2CCN(C(=O)N3CCN(c4ccc5c(c4)CN(C4CCC(=O)NC4=O)C5=O)CC3)CC2)cc1)c1ccccc1` (stereo not drawn) [Compound 106], the IC50 (in assay [1]; at ER) was < 10 nM each time. The 50% degradation concentration (DC50) on ERα was < 10 nM. Besides, the Dmax on ERα is > 90%.

With `CC/C(=C(/c1ccc(O)cc1)c1ccc(N2CCN(C(=O)N3CCN(c4ccc5c(c4)CN([C@H]4CCC(=O)NC4=O)C5=O)CC3)CC2)cc1)c1ccccc1` [Compound 101, (S,Z)-3-(5-(4-(4-(4-(1-(4-hydroxyphenyl)-2-phenylbut-1-en-1-yl)phenyl)piperazine-1-carbonyl)piperazin-1-yl)-1-oxoisoindolin-2-yl)piperidine-2,6-dione], the IC50 in assay [1] was in the range of 10 to 50 nM. Also, the IC50 at ER was < 10 nM. In addition, on ERα, the 50% degradation concentration (DC50) is < 10 nM and the Dmax is > 90%.

Regarding `CC/C(=C(\c1ccc(B(O)O)cc1)c1ccc(N2CCN(CCC3CCN(c4ccc5c(c4)CN(C4CCC(=O)NC4=O)C5=O)CC3)CC2)cc1)c1ccccc1` (stereo not drawn) [Compound 67, (Z)-(4-(1-(4-(4-(2-(1-(2-(2,6-dioxopiperidin-3-yl)-1-oxoisoindolin-5-yl)piperidin-4-yl)ethyl)piperazin-1-yl)phenyl)-2-phenylbut-1-en-1-yl)phenyl)boronic acid], in assay [1], the IC50 is < 10 nM. The IC50 on ER is < 10 nM. On ERα, the DC50 is < 10 nM and the Dmax is > 90%.

As for `CC/C(=C(\c1ccc(OCCN2CCN(C(=O)N3CCN(c4ccc5c(c4)CN([C@H]4CCC(=O)NC4=O)C5=O)CC3)CC2)cc1)c1ccc(B(O)O)cc1)c1ccccc1` [Compound 87, (S,E)-(4-(1-(4-(2-(4-(4-(2-(2,6-dioxopiperidin-3-yl)-1-oxoisoindolin-5-yl)piperazine-1-carbonyl)piperazin-1-yl)ethoxy)phenyl)-2-phenylbut-1-en-1-yl)phenyl)boronic acid], in assay [1], the IC50 was < 10 nM. The IC50 on ER was < 10 nM. Besides, at ERα, the DC50 is < 10 nM and the Dmax is > 90%.

Regarding `CC/C(=C(/c1ccc(B2OC(C)(C)C(C)(C)O2)cc1)c1ccc(N2CCC(CCN3CCN(c4ccc5c(c4)CN(C4CCC(=O)NC4=O)C5=O)CC3)CC2)cc1)c1ccccc1` (stereo not drawn) [Compound 10, (E)-3-(1-oxo-5-(4-(2-(1-(4-(2-phenyl-1-(4-(4,4,5,5-tetramethyl-1,3,2-dioxaborolan-2-yl)phenyl)but-1-en-1-yl)phenyl)piperidin-4-yl)ethyl)piperazin-1-yl)isoindolin-2-yl)piperidine-2,6-dione], the IC50 (in assay [1]; at ER) was < 10 nM each time. This molecule yielded a DC50 at ERα of 10 to 50 nM. Moreover, the Dmax on ERα is > 90%.

Take `CC/C(=C(\c1ccc(B(O)O)cc1)c1ccc(N2CCN(CCC3CCN(c4ccc5c(c4)C(=O)N(C4CCC(=O)NC4=O)C5=O)CC3)CC2)cc1)c1ccccc1` (stereo not drawn) [Compound 65, (Z)-(4-(1-(4-(4-(2-(1-(2-(2,6-dioxopiperidin-3-yl)-1,3-dioxoisoindolin-5-yl)piperidin-4-yl)ethyl)piperazin-1-yl)phenyl)-2-phenylbut-1-en-1-yl)phenyl)boronic acid]: the IC50 in assay [1] fell in the range of 10 to 50 nM. In addition, on ER, the IC50 is < 10 nM. Moreover, on ERα, the DC50 is < 10 nM and the Dmax is > 90%.

For `CC/C(=C(/c1ccc(OCCN2CCC(C3CCN(c4ccc5c(c4)C(=O)N(C4CCC(=O)NC4=O)C5=O)CC3)CC2)cc1)c1ccc(B(O)O)cc1)c1ccccc1` (stereo not drawn) [Compound 33, (Z)-(4-(1-(4-(2-(1′-(2-(2,6-dioxopiperidin-3-yl)-1,3-dioxoisoindolin-5-yl)-[4,4′-bipiperidin]-1-yl)ethoxy)phenyl)-2-phenylbut-1-en-1-yl)phenyl)boronic acid], the IC50 (in assay [1]; on ER) was 10 to 50 nM throughout. Also, on ERα, the DC50 was < 10 nM. The Dmax at ERα is > 90%.

In the case of `CC/C(=C(\c1ccc(O)cc1)c1ccc(N2CCN(C(=O)N3CCN(c4ccc5c(c4)CN(C4CCC(=O)NC4=O)C5=O)CC3)CC2)cc1)c1ccccc1` (stereo not drawn) [Compound 97, (E)-3-(5-(4-(4-(4-(1-(4-hydroxyphenyl)-2-phenylbut-1-en-1-yl)phenyl)piperazine-1-carbonyl)piperazin-1-yl)-1-oxoisoindolin-2-yl)piperidine-2,6-dione], the IC50 in assay [1] lay within 10 to 50 nM. The IC50 at ER is < 10 nM. Also, at ERα, the DC50 lay within 10 to 50 nM and the Dmax is > 90%.

As for `CC/C(=C(/c1ccc(B(O)O)cc1)c1ccc(N2CCN(CCC3CCN(c4ccc5c(c4)CN(C4CCC(=O)NC4=O)C5=O)CC3)CC2)cc1)c1ccccc1` (stereo not drawn) [Compound 68, (E)-(4-(1-(4-(4-(2-(1-(2-(2,6-dioxopiperidin-3-yl)-1-oxoisoindolin-5-yl)piperidin-4-yl)ethyl)piperazin-1-yl)phenyl)-2-phenylbut-1-en-1-yl)phenyl)boronic acid], the IC50 in assay [1] is < 10 nM. For the same molecule, the IC50 at ER was < 10 nM. Also, at ERα, the DC50 was < 10 nM and the Dmax was > 90%.

For `CC/C(=C(/c1ccc(OCCN2CCN(CCCNc3ccc4c(c3)C(=O)N(C3CCC(=O)NC3=O)C4=O)CC2)cc1)c1ccc(B(O)O)cc1)c1ccccc1` (stereo not drawn) [Compound 15, (Z)-(4-(1-(4-(2-(4-(3-((2-(2,6-dioxopiperidin-3-yl)-1,3-dioxoisoindolin-5-yl)amino)propyl)piperazin-1-yl)ethoxy)phenyl)-2-phenylbut-1-en-1-yl)phenyl)boronic acid], the IC50 in assay [1] lay within 10 to 50 nM. On ER, the IC50 is 10 to 50 nM. Besides, on ERα, the DC50 was in the range of 10 to 50 nM and the Dmax is > 75%.

For the molecule `CC/C(=C(/c1ccc(B(O)O)cc1)c1ccc(N2CCC(CCN3CCN(c4ccc5c(c4)C(=O)N(C4CCC(=O)NC4=O)C5=O)CC3)CC2)cc1)c1ccccc1` (stereo not drawn) [Compound 64], the IC50 in assay [1] was in the range of 10 to 50 nM. Moreover, at ER, the IC50 lay in the range of 10 to 50 nM. Further, on ERα, the DC50 lay in the range of 10 to 50 nM and the Dmax was > 90%.

For `CC/C(=C(/c1ccc(O)cc1)c1ccc(OCCN2CCN(C(=O)N3CCN(c4ccc5c(c4)CN([C@H]4CCC(=O)NC4=O)C5=O)CC3)CC2)cc1)c1ccccc1` [Compound 81, (S,E)-3-(5-(4-(4-(2-(4-(1-(4-hydroxyphenyl)-2-phenylbut-1-en-1-yl)phenoxy)ethyl)piperazine-1-carbonyl)piperazin-1-yl)-1-oxoisoindolin-2-yl)piperidine-2,6-dione], in assay [1], the IC50 is < 10 nM. At ER, the IC50 was < 10 nM. For the same molecule, on ERα, the DC50 is < 10 nM and the Dmax is > 90%.

With `CC/C(=C(\c1ccc(OCCN2CCC(CN3CCN(c4ccc5c(c4)CN([C@H]4CCC(=O)NC4=O)C5=O)CC3)CC2)cc1)c1ccc(B(O)O)cc1)c1ccccc1` [Compound 75, (S,E)-(4-(1-(4-(2-(4-((4-(2-(2,6-dioxopiperidin-3-yl)-1-oxoisoindolin-5-yl)piperazin-1-yl)methyl)piperidin-1-yl)ethoxy)phenyl)-2-phenylbut-1-en-1-yl)phenyl)boronic acid], the IC50 in assay [1] is < 10 nM. Moreover, the IC50 on ER was < 10 nM. At ERα, the DC50 is < 10 nM and the Dmax is > 90%.

`CC/C(=C(/c1ccc(O)cc1)c1ccc(N2CCN(C(=O)N3CCC(CN4CCN(c5ccc6c(c5)CN(C5CCC(=O)NC5=O)C6=O)CC4)CC3)CC2)cc1)c1ccccc1` (stereo not drawn) [Compound 115, (Z)-3-(5-(4-((1-(4-(4-(1-(4-hydroxyphenyl)-2-phenylbut-1-en-1-yl)phenyl)piperazine-1-carbonyl)piperidin-4-yl)methyl)piperazin-1-yl)-1-oxoisoindolin-2-yl)piperidine-2,6-dione]: the IC50 (in assay [1]; at ER) was < 10 nM throughout. Besides, at ERα, the DC50 was < 10 nM. For the same molecule, at ERα, the Dmax was > 90%.
